Measured values from patent US8394829B2, “Bi-functional quinoline analogs” (Gilead Sciences, Inc., priority 2010, dated 2013).

Columns and labels:
Human recombinant PDE4B2 = target: T1, Human recombinant PDE4B2 (Homo sapiens, UniProt Q07343); test: Inhibition of PDE4B4 enzyme activity (PDE Glo Assay); format: biochemical; settings: human recombinant PDE4B2, 50 nM cAMP; read-out: PDE4 IC50
T1 construct: purchased BPS Bioscience
In short: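 Human recombinant PDE4B2 (0.12 nM) was pre-incubated with compound for 10 min at rt, then 50 nM cAMP was added for 1 hr. After IBMX stop and PKA detection, read-out was Kinase-Glo luminescence. IC50 came from a single-site nonlinear fit of RLU versus concentration.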

[1] = target: T2, human recombinant beta-2 adrenoreceptors (Homo sapiens, UniProt P07550); test: Beta-2 adrenoceptor binding assay ([3H](−)CGP-12177 displacement); settings: CHO cells expressing human beta-2 adrenoreceptors, [3H](−)CGP-12177 0.3 nM, 120 min
T2 construct: expressed in transfected cells; host or cells: CHO cells
In short: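 Displacement of [3H](−)CGP-12177 (0.3 nM) from human recombinant beta-2 receptors expressed in CHO cells, measured after 120 min incubation with test compound. Bound radioligand counted by scintillation; IC50 taken from concentration-response curves as 50% of each compound's maximal inhibition.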

[2] = target: T2, human recombinant beta-2 adrenoreceptors; test: Functional agonism of human recombinant beta-2 adrenoreceptors expressed in CHO cells (cAMP HTRF); format: cell-based; settings: CHO cells expressing human beta-2 adrenoreceptors, cAMP elevation, 30 min
In short: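 CHO cells expressing recombinant receptor incubated with compound for 30 min; intracellular cAMP rise over control read by HTRF. EC50 taken as concentration giving 50% of that compound's own maximal response, with full or partial agonism judged against isoproterenol maximum.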

[3] = tested on: LPS-induced TNF-α release from human peripheral blood mononuclear cells (PBMC); test: Inhibition of LPS-induced TNF-α release from human PBMC; format: cell-based; settings: LPS 0.4 ng/mL, 6 h, presence or absence of ICI-118551 not given
In short: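 Ficoll-purified primary PBMC, 100,000 cells/well, pre-incubated 30 min ± 10 μM ICI-118551 (± gives PDE4-only vs PDE4 plus beta-2 activity), then compound 1 h at 37 °C (0.1% DMSO). Stimulated with 0.4 ng/mL LPS for 6 h; supernatant TNF-α by bead cytokine assay; IC50 from single-site fit.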

[4] = tested on: LPS-induced neutrophil recruitment into the lungs; test: Inhibition of LPS-induced neutrophil recruitment into the lungs of Lewis rats; format: in vivo; settings: intra-tracheal dose of 300 μg/kg, 2 h before LPS aerosol, BAL 4 h post-LPS
Method: Inhibition of Lipoploysaccharide (LPS)-Induced Neutrophil Recruitment into the Lungs of Lewis Rats
Rats were anesthetized with 4% isoflurane, placed in the supine position at an angle of 30°, the mouth opened and the trachea exposed. A 22-gauge needle with a syringe attached was introduced into the trachea and test compound in suspension (200 μl volume per 400 g) was delivered into the lungs from approximately one centimeter above the carina. The rats were allowed to recover and two hrs later conscious animals were placed into a chamber and exposed to aerosolized LPS (1.0 mg/mL) at a rate of 3.0 L/min for 20 min. Rats were euthanized 4 h post-LPS exposure by an overdose of pentobarbital (90 mg/kg) by intra-peritoneal injection. […] The supernatant was discarded, the cells were re-suspended in PBS and total cell counts were determined based on a 10 μl sample of re-suspended cells stained with trypan blue and counts performed using a Countess® cell counter (Invitrogen). […] Manual eye counting was performed to determine the percentage number of cells in the cytospun sample (determined as macrophages, neutrophils, eosinophils, T-lymphocytes and eosinophils) and these values were used to determine the total number of each cell type per sample. Typically experiments contained a minimum of six rats per experimental group and the mean±SEM number of neutrophils was determined for each group. […]

T2 sequence (P07550 whole entry): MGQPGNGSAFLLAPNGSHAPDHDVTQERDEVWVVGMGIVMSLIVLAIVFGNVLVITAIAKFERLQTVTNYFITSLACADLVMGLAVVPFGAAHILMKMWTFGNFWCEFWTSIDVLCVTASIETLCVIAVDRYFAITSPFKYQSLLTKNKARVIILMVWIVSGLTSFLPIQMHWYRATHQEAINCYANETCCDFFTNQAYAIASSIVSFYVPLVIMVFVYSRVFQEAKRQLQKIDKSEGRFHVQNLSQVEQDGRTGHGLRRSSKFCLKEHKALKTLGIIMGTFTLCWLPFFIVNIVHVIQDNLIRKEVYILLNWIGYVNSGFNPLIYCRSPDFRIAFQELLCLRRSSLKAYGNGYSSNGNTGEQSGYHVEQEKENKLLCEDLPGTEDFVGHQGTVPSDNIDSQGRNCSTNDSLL
T1 sequence (Q07343 1-564 isoform Q07343-2): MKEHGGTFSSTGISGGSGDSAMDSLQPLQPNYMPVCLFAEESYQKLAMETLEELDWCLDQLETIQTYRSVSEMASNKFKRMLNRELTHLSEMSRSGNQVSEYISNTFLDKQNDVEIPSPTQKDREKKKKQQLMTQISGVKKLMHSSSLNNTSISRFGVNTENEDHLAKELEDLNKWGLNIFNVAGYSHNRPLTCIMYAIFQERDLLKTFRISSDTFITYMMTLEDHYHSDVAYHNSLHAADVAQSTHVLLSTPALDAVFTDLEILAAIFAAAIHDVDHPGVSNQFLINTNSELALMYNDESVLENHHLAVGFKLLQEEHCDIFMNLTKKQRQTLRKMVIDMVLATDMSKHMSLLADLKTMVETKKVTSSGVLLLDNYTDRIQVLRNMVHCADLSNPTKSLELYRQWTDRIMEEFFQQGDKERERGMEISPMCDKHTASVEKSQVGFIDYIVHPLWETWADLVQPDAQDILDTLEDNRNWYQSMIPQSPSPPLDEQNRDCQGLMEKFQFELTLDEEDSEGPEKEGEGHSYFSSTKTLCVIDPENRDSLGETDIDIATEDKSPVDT

Row | Compound | IC50 (Human recombinant PDE4B2) [nM] | IC50 [1] [nM] | EC50 [2] [nM] | EC50 [3] [nM] | neutrophil inhibition [4] [%]
1 | COc1cccc(Nc2c(C(N)=O)cnc3c(C)cc(S(=O)(=O)c4cccc(C(=O)N(C)CCOc5ccc(CCNC[C@H](O)c6ccc(O)c7[nH]c(=O)ccc67)cc5)c4)cc23)c1 [Example 25, (R)-6-((3-((2-(4-(2-((2-hydroxy-2-(8-hydroxy-2-oxo-1,2-dihydroquinolin-5-yl)ethyl)amino)ethyl)phenoxy)ethyl)(methyl)carbamoyl)phenyl)sulfonyl)-4-((3-methoxyphenyl)amino)-8-methylquinoline-3-carboxamide] | < 100 | > 300 | < 100 | < 100 | 
2 | COc1cccc(Nc2c(C(N)=O)cnc3c(C)cc(S(=O)(=O)c4cccc(CN(C)C(=O)c5cccc(CC(C)(C)NC[C@H](O)c6ccc(O)c7[nH]c(=O)ccc67)c5)c4)cc23)c1 [Example 19, (R)-6-((3-((3-(2-((2-hydroxy-2-(8-hydroxy-2-oxo-1,2-dihydroquinolin-5-yl)ethyl)amino)-2-methylpropyl)-N-methylbenzamido)methyl)phenyl)sulfonyl)-4-((3-methoxyphenyl)amino)-8-methylquinoline-3-carboxamide] | < 100 | < 100 | < 100 | < 100 | 
3 | COc1cccc(Nc2c(C(N)=O)cnc3c(C)cc(S(=O)(=O)c4cccc(C(=O)N5CCC(NC[C@H](O)c6ccc(O)c7[nH]c(=O)ccc67)CC5)c4)cc23)c1 [Example 3, (R)-6-[[3-[[4-[[2-Hydroxy-2-(8-hydroxy-2-oxo-1,2-dihydroquinolin-5-yl)ethyl]amino]piperidine-1-yl]carbonyl)phenyl]sulfonyl]-4-[(3-methoxyphenyl)amino]-8-methylquinoline-3-carboxamide] | < 100 | > 300 | < 100 | < 100 | 
4 | COc1cccc(Nc2c(C(N)=O)cnc3c(C)cc(S(=O)(=O)c4cccc(C(=O)N(C)c5ccc(C#CCCCNC[C@H](O)c6ccc(O)c7[nH]c(=O)ccc67)cc5)c4)cc23)c1 [Example 33, (R)-6-((3-((4-(5-((2-hydroxy-2-(8-hydroxy-2-oxo-1,2-dihydroquinolin-5-yl)ethyl)amino)pent-1-yn-1-yl)phenyl)(methyl)carbamoyl)phenyl)sulfonyl)-4-((3-methoxyphenyl)amino)-8-methylquinoline-3-carboxamide] | < 100 | < 100 | < 100 | < 100 | 
5 | COc1cccc(Nc2c(C(N)=O)cnc3c(C)cc(S(=O)(=O)c4cccc(C(=O)Nc5ccc(CCNC[C@H](O)c6ccc(O)c7[nH]c(=O)ccc67)cc5)c4)cc23)c1 [Example 12, (R)-6-[[3-[[4-[2-[[2-Hydroxy-2-(8-hydroxy-2-oxo-1,2-dihydroquinolin-5-yl)ethyl]amino]ethyl]phenyl]carbamoyl]phenyl]sulfonyl]-4-[(3-methoxyphenyl)amino]-8-methylquinoline-3-carboxamide] | < 100 | < 100 | < 100 | < 100 | 
6 | COc1cccc(Nc2c(C(N)=O)cnc3c(C)cc(S(=O)(=O)c4cccc(C(=O)N5CCN(C(=O)c6cccc(CC(C)(C)NC[C@H](O)c7ccc(O)c8[nH]c(=O)ccc78)c6)CC5)c4)cc23)c1 [Example 18, (R)-6-((3-(4-(3-(2-((2-hydroxy-2-(8-hydroxy-2-oxo-1,2-dihydroquinolin-5-yl)ethyl)amino)-2-methylpropyl)benzoyl)piperazine-1-carbonyl)phenyl)sulfonyl)-4-((3-methoxyphenyl)amino)-8-methylquinoline-3-carboxamide] | < 100 | < 100 | < 100 | < 100 | 
7 | COc1cccc(Nc2c(C(N)=O)cnc3c(C)cc(S(=O)(=O)c4cccc(C(=O)Nc5cccc(C#CCCCNC[C@H](O)c6ccc(O)c7[nH]c(=O)ccc67)c5)c4)cc23)c1 [Example 9, (R)-6-((3-((3-(5-((2-hydroxy-2-(8-hydroxy-2-oxo-1,2-dihydroquinolin-5-yl)ethyl)amino)pent-1-yn-1-yl)phenyl)carbamoyl)phenyl)sulfonyl)-4-((3-methoxyphenyl)amino)-8-methylquinoline-3-carboxamide] | < 100 | < 100 | < 100 | < 100 | 

Further lines, with some results ahead:

Row | IC50 (Human recombinant PDE4B2) [nM] | IC50 [1] [nM] | EC50 [2] [nM] | Compound | EC50 [3] [nM] | neutrophil inhibition [4] [%]
8 | < 100 | > 300 | > 300 | COc1cccc(Nc2c(C(N)=O)cnc3c(C)cc(S(=O)(=O)c4cccc(C(=O)Nc5ccc(CCCCCNC[C@H](O)c6ccc(O)c(CO)c6)cc5)c4)cc23)c1 [Example 26, (R)-6-[[3-[[4-[5-[[2-Hydroxy-2-[4-hydroxy-3-(hydroxymethyl)phenyl]ethyl]amino]pentyl]phenyl]carbamoyl]phenyl]sulfonyl]-4-[(3-methoxyphenyl)amino]-8-methylquinoline-3-carboxamide 2,2,2-trifluoroacetate] | < 100 | ≤ 40
9 | < 100 | < 100 | < 100 | COc1cccc(Nc2c(C(N)=O)cnc3c(C)cc(S(=O)(=O)c4cccc(C(=O)NCCCCCCNC[C@H](O)c5ccc(O)c(NC=O)c5)c4)cc23)c1 [Example 27, (R)-6-[[3-[[6-[[2-(3-Formamido-4-hydroxyphenyl)-2-hydroxyethyl]amino]hexyl]carbamoyl]phenyl]sulfonyl]-4-((3-methoxyphenyl)amino]-8-methylquinoline-3-carboxamide] | < 100 | 
10 | < 100 | < 100 | < 100 | COc1cccc(Nc2c(C(N)=O)cnc3c(C)cc(S(=O)(=O)c4cccc(C(=O)NCCCCCCNC[C@H](O)c5cc(O)cc6c5OCC(=O)N6)c4)cc23)c1 [Example 23, (R)-6-((3-((6-((2-hydroxy-2-(6-hydroxy-3-oxo-3,4-dihydro-2H-benzo[b][1,4]oxazin-8-yl)ethyl)amino)hexyl)carbamoyl)phenyl)sulfonyl)-4-((3-methoxyphenyl)amino)-8-methylquinoline-3-carboxamide] | < 100 | 
11 | < 100 | < 100 | < 100 | COc1cccc(Nc2c(C(N)=O)cnc3c(C)cc(S(=O)(=O)c4cccc(C(=O)N(C)CCCCCCNC[C@H](O)c5ccc(O)c6c5OCC(=O)N6)c4)cc23)c1 [Example 30, (R)-6-((3-((6-((2-hydroxy-2-(5-hydroxy-3-oxo-3,4-dihydro-2H-benzo[b][1,4]oxazin-8-yl)ethyl)amino)hexyl)(methyl)carbamoyl)phenyl)sulfonyl)-4-((3-methoxyphenyl)amino)-8-methylquinoline-3-carboxamide] | < 100 | 
12 | < 100 | < 100 | < 100 | COc1cccc(Nc2c(C(N)=O)cnc3c(C)cc(S(=O)(=O)c4cccc(C(=O)Nc5ccc(C#CCCCNC[C@H](O)c6ccc(O)c7[nH]c(=O)ccc67)cc5C)c4)cc23)c1 [Example 34, (R)-6-((3-((4-(5-((2-hydroxy-2-(8-hydroxy-2-oxo-1,2-dihydroquinolin-5-yl)ethyl)amino)pent-1-yn-1-yl)-2-methylphenyl)carbamoyl)phenyl)sulfonyl)-4-((3-methoxyphenyl)amino)-8-methylquinoline-3-carboxamide] | < 100 | 
